The nature of data set [1]: Hydrolytic stability at pH 5.0 at 37 degree C; expressed as T1/2. The data set is classed as physicochemical. Conditions: buffer.
The nature of data set [2]: Hydrolytic stability at pH 7.0 at 37 degree C; expressed as T1/2. It is filed as physicochemical. Particulars: buffer.
Data set [3] concerns L2987. The experiment in a line: In vitro inhibitory concentration of the unconjugated compound against human L2987 lung carcinoma cell line. The data set is classed as functional, cell-based.
In data set [4] the test system is L2987. The data set is described as follows: Potency against human L2987 lung carcinoma cell line relative to that of DOX 1a. The data set is classed as functional.
The test system of data set [5] is L2987. The data set is described as follows: In vitro inhibitory concentration of the BR96 conjugate of compound against human L2987 lung carcinoma cell line. It is filed as functional, cell-based.
The test system of data set [6] is L2987. The data set is described as follows: In vitro inhibitory concentration of the IgG conjugate of compound against human L2987 lung carcinoma cell line. It is filed as functional, cell-based.
Data set [7] has as its system L2987. The data set is described as follows: (§1) Potency against human L2987 lung carcinoma cell line relative to that of BR96-1b. The data set is classed as functional.
A short description of data set [8]: Selectivity ratio determined as IC50 IgG-2b to that of IC50 BR96-2b. The data set is classed as functional.
Data set [9] concerns L2987. Described as §1. The data set is classed as functional, cell-based.
Data set [10] is described as follows: Selectivity ratio determined as IC50 IgG-3b to that of IC50 BR96-3b. It is filed as functional.
The nature of data set [11]: Selectivity ratio determined as IC50 IgG-1b to that of IC50 BR96-1b. It is filed as functional.

A word on the half-life: it is the time needed for the level to fall by half in the phase considered. Read a low half-life as rapid decline. Consider `COc1cccc2c1C(=O)c1c(O)c3c(c(O)c1C2=O)C[C@@](O)(/C(CO)=N/NC(=O)CCCCCN1C(=O)CC(SCCO)C1=O)C[C@@H]3OC1C[C@H](N2CCOCC2)C(O)[C@H](C)O1` (stereo partly specified), for which the results for the half-life in data set [1] and in data set [2] were 4.5 h and greater than 95 h, respectively.
Usually IC50 stands for the midpoint of a concentration-inhibition curve. Low values mean greater potency in that assay, high ones weaker potency in that assay. On to `COc1cccc2c1C(=O)c1c(O)c3c(c(O)c1C2=O)C[C@@](O)(C(=O)CO)C[C@@H]3OC1C[C@H](N2CCOCC2)C(O)[C@H](C)O1` (stereo partly specified), for which the IC50 in the data set with L2987 [3] is 40 nM. The Relative potency in the data set with L2987 [4] is 8.
For the compound `COc1cccc2c1C(=O)c1c(O)c3c(c(O)c1C2=O)C[C@@](O)(/C(CO)=N/NC(=O)CCCCCN1C(=O)CC(SCCO)C1=O)C[C@@H]3OC1C[C@H](N)C(O)[C@H](C)O1` (stereo partly specified), the half-life in data set [1] is 7 h; in data set [2] it was greater than 120 h.
In turn, `COc1cccc2c1C(=O)c1c(O)c3c(c(O)c1C2=O)C[C@@](O)(C(=O)CO)C[C@@H]3OC1C[C@H](NCCCCC(OC(C)=O)OC(C)=O)C(O)[C@H](C)O1` (stereo partly specified) had an IC50 in the data set on L2987 [3] of 30 nM. Besides, in the data set with L2987 [4], the Relative potency is recorded as 10.
Regarding `COc1cccc2c1C(=O)c1c(O)c3c(c(O)c1C2=O)C[C@@](O)(/C(CO)=N/NC(=O)CCCCCN1C(=O)CC(S)C1=O)C[C@@H]3OC1C[C@H](NCCCCC(OC(C)=O)OC(C)=O)C(O)[C@H](C)O1` (stereo partly specified), the IC50 in the data set on L2987 [5] is 30 nM; in the data set on L2987 [6] it was 10000 nM. This compound returned a Relative potency in the data set on L2987 [7] of 30. For the same compound, the Ratio in [8] came out at 300.
For `COc1cccc2c1C(=O)c1c(O)c3c(c(O)c1C2=O)C[C@@](O)(/C(CO)=N/NC(=O)CCCCCN1C(=O)CC(SCCO)C1=O)C[C@@H]3OC1C[C@H](NCCCCC(OC(C)=O)OC(C)=O)C(O)[C@H](C)O1` (stereo partly specified), the half-life in [1] was 6.5 h; in [2], greater than 100 h.
With `COc1cccc2c1C(=O)c1c(O)c3c(c(O)c1C2=O)C[C@@](O)(/C(CO)=N/NC(=O)CCCCCN1C(=O)CC(S)C1=O)C[C@@H]3OC1C[C@H](N2CCOCC2)C(O)[C@H](C)O1` (stereo partly specified), the IC50 with L2987 [5] was 200 nM; in the data set with L2987 [6], 2000 nM; with L2987 [9], 5000 nM. Moreover, the Ratio in [10] stood at 10.
Consider `COc1cccc2c1C(=O)c1c(O)c3c(c(O)c1C2=O)C[C@@](O)(C(=O)CO)C[C@@H]3O[C@H]1C[C@H](N)[C@H](O)[C@H](C)O1` [DOXORUBICIN], for which half-maximal inhibition in the data set with L2987 [3] (IC50) required 300 nM.
For the compound `COc1cccc2c1C(=O)c1c(O)c3c(c(O)c1C2=O)C[C@@](O)(/C(CO)=N/NC(=O)CCCCCN1C(=O)CC(S)C1=O)C[C@@H]3OC1C[C@H](N)C(O)[C@H](C)O1` (stereo partly specified), in the data set with L2987 [5], the IC50 was 1000 nM. Further, the Ratio in data set [11] was 8.

The record behind these values is ChEMBL document CHEMBL1136074, “BR96 conjugates of highly potent anthracyclines” (Bioorg Med Chem Lett, 2003).
